{"source": "patent US20240165112A1", "about": "“THERAPY FOR THE TREATMENT OF CANCER” (Bristol-Myers Squibb Company, priority 2022, published 2024)", "key": {"EMT6 cell line": {"test_system": "EMT6 cell line", "assay": "2D cell line viability assay (cell confluence)", "assay_type": "cell-based, murine", "conditions": "Mus musculus, EMT6, 96 h, 4 days", "text": "(§1) FIGS. 4A-4E illustrate the effects of Compound 1 on the Potency of Paclitaxel in a 2D Cell Line Viability Assay. […] Data points indicate mean and Standard Deviation of 2 biological replicates. Graphs are representative of at least 2 independent experiments. […] Abbreviations: DMSO, dimethylsulfoxide."}, "4T1.2 cell line": {"test_system": "4T1.2 cell line", "assay": "2D cell line viability assay (cell confluence)", "assay_type": "cell-based, murine", "conditions": "Mus musculus, 4T1.2, 96 h", "text": "as §1"}, "[1]": {"test_system": "CXF1256 organoid, colon cancer", "assay": "3D clonogenic assay in patient derived organoids", "assay_type": "cell-based, human", "experimental": "(§2) Five tumor cell lines (4T1.2, A549, EMT6, NCI-H460, and HT29) were treated with a range of paclitaxel or 5-FU concentrations in the presence of dimethlylsulfoxide (DMSO), 5 μM Compound 1, or 20 μM Compound 1. Cells were imaged 4 days after treatment and percent confluence was assessed by image quantification. EC50 values for cell confluence were used to assess chemotherapy potency. Eleven patient-derived tumor organoids (MAXFTN449, MAXFTN2990, PAXF1657, PAXF2131, CXF1256, CXF2129, CXF2061, LXFE2478, LXFE690, LXFA677, LXFA644) were seeded in a 3D matrix and treated with a range of paclitaxel, 5-FU, SN38, Gemcitabine, oxaliplatin, and carboplatin concentrations in the presence of DMSO, 5 μM Compound 1, or 20 μM Compound 1. After 8 to 13 days in culture, colonies were stained, imaged, and counted. A dose response curve was generated for chemotherapy alone or chemotherapy in combination with 5 or 20 μM Compound 1. Combination activity was defined as a percentage of the area under the chemotherapy dose response curve (cAUC) for Compound 1 combination groups compared to the cAUC of chemotherapy alone.\n(§3) For combination experiments, working stock solutions of all compounds were prepared in DMSO at concentrations of 660-fold the highest test concentration used and stored at −20° C. Platin compounds were prepared freshly on each treatment day. On each day of an experiment, an aliquot of the working stock solutions was used and stored at room temperature prior to and during treatment. First, 1:2 dilutions of 660-fold concentrated working stocks were prepared in DMSO (in case of monotherapy controls), or equal amounts of the compound working stocks were mixed (in case of drug combinations). Then, different dilutions of these 330-fold concentrated solutions were prepared in DMSO to give an 8×2 matrix combination layout with conditions. The DMSO dilutions were further diluted […] into cell culture medium (IMDM, supplemented with 20% (v/v) fetal bovine serum, and 50 μg/mL gentamicin) in an intermediate dilution plate. Finally, 10 μL taken from the intermediate dilution plate were transferred to 140 μL of cells and medium per well of the final assay plate. Thus, the DMSO dilutions used for the mono- and the combination-treatment were diluted 1:660, and the DMSO concentration in the assay was […].\n(§4) Tumors were passaged as subcutaneous xenografts in NMRI nu/nu mice. At a tumor volume of 400 to 1000 mm^3, tumor-bearing mice were euthanized, and tumors were collected under sterile conditions without delay. Tumors were mechanically disaggregated and subsequently incubated with an enzyme cocktail consisting of collagenase type IV (41 U/mL), DNase I (125 U/mL), hyaluronidase type III (100 U/mL), and dispase II (1 U/mL) in RPMI 1640 medium at 37° C. for 60 to 120 minutes. Cells were passed through sieves of 100 μm and 40 μm mesh size, and washed with RPMI 1640 medium. The percentage of viable cells was determined in a Neubauer-hemocytometer using trypan blue exclusion. Aliquots of the cells were frozen down and stored in liquid nitrogen vapor phase. On each day of an experiment, a frozen aliquot of tumor cells was thawed and used for preparation of assay plates.\n(§5) The clonogenic assay was carried out in a 96 well plate format using ultra low attachment plates. For each test, plates were prepared as follows: each test well contained a layer of semi-solid medium with tumor cells (50 μL), and a second layer of medium supernatant with or without test compound (100 μL). The cell layer consisted of […] to 12.5×10^3 tumor cells per well, which were seeded in 50 μL/well cell culture medium (IMDM, supplemented with 20% (v/v) fetal bovine serum, 50 μg/mL gentamicin, and 0.4% (w/v) agar). After 24 hours, the soft-agar layer was covered with 90 μL of the same culture medium without agar, and 10 μL of control medium or test compound after serial dilution in DMSO for the duration of the experiment (continuous exposure, 100 μL drug overlay)."}, "[2]": {"test_system": "CXF2129 organoid, colon cancer", "assay": "3D clonogenic assay in patient derived organoids", "assay_type": "cell-based, human", "experimental": "as §2, §3, §4, §5"}, "[3]": {"test_system": "PAXF2131 organoid, Pancreatic cancer", "assay": "3D clonogenic assay in patient derived organoids", "assay_type": "cell-based, human", "experimental": "as §2, §3, §4, §5"}, "[4]": {"test_system": "PAXF1657 organoid, pancreatic cancer", "assay": "3D clonogenic assay in patient derived organoids", "assay_type": "cell-based, human", "experimental": "as §2, §3, §4, §5"}, "[5]": {"test_system": "CXF2061 organoid, colon cancer", "assay": "3D clonogenic assay in patient derived organoids", "assay_type": "cell-based, human", "experimental": "as §2, §3, §4, §5"}, "[6]": {"test_system": "MAXFTN449 organoid, breast cancer (triple negative)", "assay": "3D clonogenic assay in patient derived organoids", "assay_type": "cell-based, human", "experimental": "as §2, §3, §4, §5"}, "[7]": {"test_system": "MAXFTN2990 organoid, breast cancer (triple negative)", "assay": "3D clonogenic assay in patient derived organoids", "assay_type": "cell-based, human", "experimental": "as §2, §3, §4, §5"}, "HT29 cell line": {"test_system": "HT29 cell line", "assay": "2D cell line viability assay (cell confluence)", "assay_type": "cell-based", "conditions": "Homo sapiens, HT-29, 96 h, 4 days", "text": "as §1"}, "NCI-H460 cell line": {"test_system": "NCI-H460 cell line", "assay": "2D cell line viability assay (cell confluence)", "assay_type": "cell-based", "conditions": "Homo sapiens, NCI-H460, 96 h, 4 days", "text": "as §1"}, "A549 cell line": {"test_system": "A549 cell line", "assay": "2D cell line viability assay (cell confluence)", "assay_type": "cell-based", "conditions": "Homo sapiens, A549, 96 h, 4 days", "text": "as §1"}, "[8]": {"test_system": "Five tumor cell lines (4T1.2, A549, EMT6, NCI-H460, and HT29)", "experimental": "as §2"}, "[9]": {"conditions": "in the presence of 5 μM Compound 1"}, "[10]": {"conditions": "in the presence of 20 μM Compound 1"}, "[11]": {"conditions": "chemotherapy dose titration + 5 μM Compound 1 vs chemotherapy alone"}, "[12]": {"conditions": "chemotherapy dose titration + 20 μM Compound 1 vs chemotherapy alone"}}, "note": "pEC50: −log10 of the molar value."}
{"smiles": "O=c1[nH]cc(F)c(=O)[nH]1", "note": "[Compound 5-FU, 5-Fluorouracil]", "values": [{"measurement": "pEC50", "setting": "EMT6 cell line; in the absence of Compound 1", "value": 5.57}, {"measurement": "pEC50", "setting": "EMT6 cell line; [9]", "value": 5.60}, {"measurement": "pEC50", "setting": "EMT6 cell line; [10]", "value": 5.59}, {"measurement": "pEC50", "setting": "4T1.2 cell line; 4 days after treatment, in the absence of Compound 1", "value": 6.24}, {"measurement": "pEC50", "setting": "4T1.2 cell line; 4 days, in the presence of 5 μM Compound 1", "value": 6.30}, {"measurement": "pEC50", "setting": "4T1.2 cell line; 4 days, in the presence of 20 μM Compound 1", "value": 6.31}, {"measurement": "Combination activity 5 μM Compound 1 (cAUC % reduction)", "setting": "[1]; [11]", "value": 78, "unit": "%"}, {"measurement": "Combination activity 20 μM Compound 1 (cAUC % reduction)", "setting": "[1]; [12]", "value": 79, "unit": "%"}, {"measurement": "Combination activity 5 μM Compound 1 (cAUC % reduction)", "setting": "[2]; [11]", "value": 42, "unit": "%"}, {"measurement": "Combination activity 20 μM Compound 1 (cAUC % reduction)", "setting": "[2]; [12]", "value": 31, "unit": "%"}, {"measurement": "Combination activity 5 μM Compound 1 (cAUC % reduction)", "setting": "[3]; [11]", "value": 52, "unit": "%"}, {"measurement": "Combination activity 20 μM Compound 1 (cAUC % reduction)", "setting": "[3]; [12]", "value": 67, "unit": "%"}, {"measurement": "Combination activity 5 μM Compound 1 (cAUC % reduction)", "setting": "[4]; [11]", "value": 32, "unit": "%"}, {"measurement": "Combination activity 20 μM Compound 1 (cAUC % reduction)", "setting": "[4]; [12]", "value": 32, "unit": "%"}, {"measurement": "Combination activity 5 μM Compound 1 (cAUC % reduction)", "setting": "[5]; [11]", "value": 25, "unit": "%"}, {"measurement": "Combination activity 20 μM Compound 1 (cAUC % reduction)", "setting": "[5]; [12]", "value": 18, "unit": "%"}, {"measurement": "Combination activity 5 μM Compound 1 (cAUC % reduction)", "setting": "[6]; [11]", "value": 29, "unit": "%"}, {"measurement": "Combination activity 20 μM Compound 1 (cAUC % reduction)", "setting": "[6]; [12]", "value": 14, "unit": "%"}, {"measurement": "Combination activity 5 μM Compound 1 (cAUC % reduction)", "setting": "[7]; [11]", "value": "−25", "unit": "%"}, {"measurement": "Combination activity 20 μM Compound 1 (cAUC % reduction)", "setting": "[7]; [12]", "value": 8, "unit": "%"}, {"measurement": "pEC50", "setting": "HT29 cell line; in the absence of Compound 1", "value": 5.60}, {"measurement": "pEC50", "setting": "HT29 cell line; [9]", "value": 5.60}, {"measurement": "pEC50", "setting": "HT29 cell line; [10]", "value": 5.80}, {"measurement": "pEC50", "setting": "NCI-H460 cell line; in the absence of Compound 1", "value": 5.59}, {"measurement": "pEC50", "setting": "NCI-H460 cell line; [9]", "value": 5.80}, {"measurement": "pEC50", "setting": "NCI-H460 cell line; [10]", "value": 5.77}, {"measurement": "pEC50", "setting": "A549 cell line; in the absence of Compound 1", "value": 5.62}, {"measurement": "pEC50", "setting": "A549 cell line; [9]", "value": 5.59}, {"measurement": "pEC50", "setting": "A549 cell line; [10]", "value": 5.82}, {"measurement": "potency of 5-FU in the presence of Compound 1 relative to 5-FU potency in the absence of Compound 1", "setting": "[8]", "value": "≤ 2", "unit": "fold"}]}
